Source: article PMC5218480 (PLoS ONE, 2017)

Tested on: MV-4-11 cells
Test: Gene expression microarray analysis (Affymetrix PrimeView) and GSEA
Format: cell-based, human
Parameters: RFU PODN (11730768_x_at) / Fold change /veh PODN (11730768_x_at) / RFU LINC00158 (11744669_a_at) / Fold change /veh LINC00158 (11744669_a_at) / RFU DUSP10 (11751237_a_at) / Fold change /veh DUSP10 (11751237_a_at) / RFU ID3 (11757404_x_at) / Fold change /veh ID3 (11757404_x_at) / RFU PLEKHG5 (11737974_s_at) / Fold change /veh PLEKHG5 (11737974_s_at) / RFU LRRC4B (11730491_at) / Fold change /veh LRRC4B (11730491_at) / RFU GIMAP4 (11747438_a_at) / Fold change /veh GIMAP4 (11747438_a_at) / RFU KRT8 (11758183_x_at) / Fold change /veh KRT8 (11758183_x_at) / RFU CNN1 (11734310_a_at) / Fold change /veh CNN1 (11734310_a_at) / RFU VPS37D (11726825_at) / Fold change /veh VPS37D (11726825_at) / RFU C10orf10 (11716522_x_at) / Fold change /veh C10orf10 (11716522_x_at) / RFU KIR2DL2 /// KIR2DL4 /// KIR2DL5A /// KIR2DL5B /// KIR2DS1 /// KIR2DS2 /// KIR2DS3 /// KIR2DS4 /// KIR3DL3 /// KIR3DL3 /// KIR3DS1 (11738374_at) / Fold change /veh KIR2DL2 /// KIR2DL4 /// KIR2DL5A /// KIR2DL5B /// KIR2DS1 /// KIR2DS2 /// KIR2DS3 /// KIR2DS4 /// KIR3DL3 /// KIR3DL3 /// KIR3DS1 (11738374_at) / RFU C1QL1 (11718748_at) / Fold change /veh C1QL1 (11718748_at) / RFU TMPRSS4 (11747572_a_at) / Fold change /veh TMPRSS4 (11747572_a_at) / RFU HAMP (11756126_x_at) / Fold change /veh HAMP (11756126_x_at) / RFU RNFT2 (11725882_a_at) / Fold change /veh RNFT2 (11725882_a_at) / RFU NR4A2 (11747474_a_at) / Fold change /veh NR4A2 (11747474_a_at) / RFU ABCC12 (11746883_a_at) / Fold change /veh ABCC12 (11746883_a_at) / RFU TMEM136 (11760407_x_at) / Fold change /veh TMEM136 (11760407_x_at) / RFU CLDN22 /// WWC2 (11732394_at) / Fold change /veh CLDN22 /// WWC2 (11732394_at) / RFU HLA-DPB1 (11760878_x_at) / Fold change /veh HLA-DPB1 (11760878_x_at) / RFU SPINT1 (11716480_a_at) / Fold change /veh SPINT1 (11716480_a_at) / RFU GAP43 (11754022_s_at) / Fold change /veh GAP43 (11754022_s_at) / RFU A4GNT (11735810_at) / Fold change /veh A4GNT (11735810_at) / RFU PRB3 (11715151_x_at) / Fold change /veh PRB3 (11715151_x_at) / RFU TUBB4B (11761932_at) / Fold change /veh TUBB4B (11761932_at) / RFU CAPN14 (11732068_a_at) / Fold change /veh CAPN14 (11732068_a_at) / RFU TMCC2 (11721928_a_at) / Fold change /veh TMCC2 (11721928_a_at) / RFU IRGQ (11745062_a_at) / Fold change /veh IRGQ (11745062_a_at) / RFU FAM174B (11720279_a_at) / Fold change /veh FAM174B (11720279_a_at) / RFU TMPRSS4 (11748680_a_at) / Fold change /veh TMPRSS4 (11748680_a_at) / RFU FAM212B (11763350_a_at) / Fold change /veh FAM212B (11763350_a_at) / RFU PLEKHG5 (11743358_a_at) / Fold change /veh PLEKHG5 (11743358_a_at) / RFU ZSCAN30 (11745921_a_at) / Fold change /veh ZSCAN30 (11745921_a_at) / RFU CMKLR1 (11741424_a_at) / Fold change /veh CMKLR1 (11741424_a_at) / RFU LOC101060620 /// MAPK8IP1 (11723275_at) / Fold change /veh LOC101060620 /// MAPK8IP1 (11723275_at) / RFU SPTSSB (11747773_x_at) / Fold change /veh SPTSSB (11747773_x_at) / RFU PRSS12 (11739890_at) / Fold change /veh PRSS12 (11739890_at) / RFU BIN1 (11741810_x_at) / Fold change /veh BIN1 (11741810_x_at) / RFU WNT11 (11732464_a_at) / Fold change /veh WNT11 (11732464_a_at) / RFU C10orf10 (11716521_a_at) / Fold change /veh C10orf10 (11716521_a_at) / RFU C5orf56 (11738089_at) / Fold change /veh C5orf56 (11738089_at) / RFU CYB561 (11721691_x_at) / Fold change /veh CYB561 (11721691_x_at) / RFU ANKRD19P (11752326_a_at) / Fold change /veh ANKRD19P (11752326_a_at) / RFU OR2T12 /// OR2T33 /// OR2T8 (11738714_s_at) / Fold change /veh OR2T12 /// OR2T33 /// OR2T8 (11738714_s_at) / RFU VCAN (11748164_a_at) / Fold change /veh VCAN (11748164_a_at) / RFU JSRP1 (11732532_at) / Fold change /veh JSRP1 (11732532_at) / RFU KRTAP10-11 (11738290_x_at) / Fold change /veh KRTAP10-11 (11738290_x_at) / RFU MYO3A (11730013_a_at) / Fold change /veh MYO3A (11730013_a_at) / RFU EBF3 (11725865_a_at) / Fold change /veh EBF3 (11725865_a_at) / RFU CAMK2N1 (11719241_x_at) / Fold change /veh CAMK2N1 (11719241_x_at) / RFU C5orf56 (11738088_a_at) / Fold change /veh C5orf56 (11738088_a_at) / RFU OLFML3 (11715873_a_at) / Fold change /veh OLFML3 (11715873_a_at) / RFU LOC100653217 /// NTM (11731650_a_at) / Fold change /veh LOC100653217 /// NTM (11731650_a_at) / RFU MAPK11 (11762145_a_at) / Fold change /veh MAPK11 (11762145_a_at) / RFU FIZ1 (11724087_x_at) / Fold change /veh FIZ1 (11724087_x_at) / RFU OASL (11726364_x_at) / Fold change /veh OASL (11726364_x_at) / RFU SOX15 (11748057_x_at) / Fold change /veh SOX15 (11748057_x_at) / RFU CD79A (11719716_a_at) / Fold change /veh CD79A (11719716_a_at) / RFU HIST1H1D (11736915_at) / Fold change /veh HIST1H1D (11736915_at) / RFU CASKIN2 (11723855_a_at) / Fold change /veh CASKIN2 (11723855_a_at) / RFU LOC730098 (11760151_x_at) / Fold change /veh LOC730098 (11760151_x_at) / RFU OR4N2 (11742367_at) / Fold change /veh OR4N2 (11742367_at) / RFU PRRT2 (11749266_a_at) / Fold change /veh PRRT2 (11749266_a_at) / RFU SNX32 (11753110_a_at) / Fold change /veh SNX32 (11753110_a_at) / RFU CDHR5 (11726645_a_at) / Fold change /veh CDHR5 (11726645_a_at) / RFU RCAN1 (11760418_a_at) / Fold change /veh RCAN1 (11760418_a_at) / RFU FAM167A (11723789_a_at) / Fold change /veh FAM167A (11723789_a_at) / RFU FAM26E (11764081_at) / Fold change /veh FAM26E (11764081_at) / RFU ISYNA1 (11749810_s_at) / Fold change /veh ISYNA1 (11749810_s_at) / RFU ACY1 (11761880_at) / Fold change /veh ACY1 (11761880_at) / RFU 11764098_at / Fold change /veh 11764098_at / RFU SAMD14 (11745864_x_at) / Fold change /veh SAMD14 (11745864_x_at) / RFU NPB (11741838_a_at) / Fold change /veh NPB (11741838_a_at) / RFU TMPRSS6 (11731388_a_at) / Fold change /veh TMPRSS6 (11731388_a_at) / RFU KRTAP10-2 (11738614_at) / Fold change /veh KRTAP10-2 (11738614_at) / RFU ARHGAP8 /// PRR5-ARHGAP8 (11727945_x_at) / Fold change /veh ARHGAP8 /// PRR5-ARHGAP8 (11727945_x_at) / RFU KRTAP5-7 /// NADSYN1 (11734609_at) / Fold change /veh KRTAP5-7 /// NADSYN1 (11734609_at) / RFU RASL12 (11751679_a_at) / Fold change /veh RASL12 (11751679_a_at) / RFU CDKN2B (11736163_a_at) / Fold change /veh CDKN2B (11736163_a_at) / RFU PRF1 (11729649_at) / Fold change /veh PRF1 (11729649_at) / RFU, ZNF638 /// ZNF638-IT1 / Fold change vs veh, ZNF638 /// ZNF638-IT1 / RFU, PANK3 / Fold change vs veh, PANK3 / RFU, SH3YL1 / Fold change vs veh, SH3YL1 / RFU, ZEB2 / Fold change vs veh, ZEB2 / RFU, NRIP1 / Fold change vs veh, NRIP1 / RFU, PTTG1IP / Fold change vs veh, PTTG1IP / RFU, CAPN2 / Fold change vs veh, CAPN2 / RFU, MED14 / Fold change vs veh, MED14 / RFU, SNORA58 / Fold change vs veh, SNORA58 / RFU, C1orf63 / Fold change vs veh, C1orf63 / RFU, LRRFIP1 / Fold change vs veh, LRRFIP1 / RFU, NDUFAF7 / Fold change vs veh, NDUFAF7 / RFU, SLC12A2 / Fold change vs veh, SLC12A2 / RFU, IBTK / Fold change vs veh, IBTK / RFU, ESF1 / Fold change vs veh, ESF1 / Fold change vs veh, TMEM50B / RFU, TAOK1 / Fold change vs veh, TAOK1 / RFU, ACBD3 / Fold change vs veh, ACBD3 / RFU, TMA16 / Fold change vs veh, TMA16 / RFU, RWDD3 / Fold change vs veh, RWDD3 / RFU, BCAT1 / Fold change vs veh, BCAT1 / RFU, EDEM3 / Fold change vs veh, EDEM3 / RFU, TMEM33 / Fold change vs veh, TMEM33 / RFU, WDR75 / Fold change vs veh, WDR75 / RFU, AHCTF1 / Fold change vs veh, AHCTF1 / RFU, TFRC / Fold change vs veh, TFRC / RFU, ZDHHC17 / Fold change vs veh, ZDHHC17 / RFU, NOM1 / Fold change vs veh, NOM1 / RFU, ARL8B / Fold change vs veh, ARL8B / RFU, ZBTB11 / Fold change vs veh, ZBTB11 / RFU, TAMM41 / Fold change vs veh, TAMM41 / RFU, KIAA1704 /// LOC100996395 / Fold change vs veh, KIAA1704 /// LOC100996395 / RFU, ING1 / Fold change vs veh, ING1 / RFU, TRMT61B / Fold change vs veh, TRMT61B / RFU, FUBP3 / Fold change vs veh, FUBP3 / RFU, TP53 / Fold change vs veh, TP53 / RFU, TNKS2 / Fold change vs veh, TNKS2 / RFU, ZFP14 / Fold change vs veh, ZFP14 / RFU, ACTR2 / Fold change vs veh, ACTR2 / RFU, PPP3R1 / Fold change vs veh, PPP3R1 / RFU, PIK3R1 / Fold change vs veh, PIK3R1 / RFU, HNRNPA1 / Fold change vs veh, HNRNPA1 / RFU, RNF170 / Fold change vs veh, RNF170 / RFU, ZNF28 / Fold change vs veh, ZNF28 / RFU, RNGTT / Fold change vs veh, RNGTT / RFU, OGT / Fold change vs veh, OGT / RFU, BRD1 / Fold change vs veh, BRD1 / RFU, MARS / Fold change vs veh, MARS / RFU, ZNF655 / Fold change vs veh, ZNF655 / RFU, FAHD1 / Fold change vs veh, FAHD1 / RFU, BDP1 / Fold change vs veh, BDP1 / RFU, LRRCC1 / Fold change vs veh, LRRCC1 / RFU, ARID1A / Fold change vs veh, ARID1A / RFU, ZNF146 / Fold change vs veh, ZNF146 / RFU, ZNF330 / Fold change vs veh, ZNF330 / RFU, GPN3 / Fold change vs veh, GPN3 / RFU, C9orf123 / Fold change vs veh, C9orf123 / RFU, N4BP2L2 / Fold change vs veh, N4BP2L2 / RFU, ARFIP1 / Fold change vs veh, ARFIP1 / RFU, FAM179B / Fold change vs veh, FAM179B / RFU, BCL10 / Fold change vs veh, BCL10 / RFU, UHRF1BP1L / Fold change vs veh, UHRF1BP1L / RFU, BET1 / Fold change vs veh, BET1 / RFU, CNOT2 / Fold change vs veh, CNOT2 / RFU, ZNF268 / Fold change vs veh, ZNF268 / Fold change vs veh, ZNF507 / RFU, DGCR2 / Fold change vs veh, DGCR2 / RFU, WDSUB1 / Fold change vs veh, WDSUB1 / Fold change vs veh, HSP90B1 /// MIR3652 / RFU, ADSS / Fold change vs veh, ADSS / RFU, GK / Fold change vs veh, GK / RFU, ZNF148 / Fold change vs veh, ZNF148 / RFU, TAF9 / Fold change vs veh, TAF9 / RFU, SLC1A5 / Fold change vs veh, SLC1A5 / RFU, SLMO2 / Fold change vs veh, SLMO2 / RFU, ABCC4 / Fold change vs veh, ABCC4 / RFU, LOC101060439 /// RAP1B / Fold change vs veh, LOC101060439 /// RAP1B / RFU, RFX7 / Fold change vs veh, RFX7 / RFU, GTPBP10 / Fold change vs veh, GTPBP10 / RFU, CNEP1R1 / Fold change vs veh, CNEP1R1 / RFU, BIVM-ERCC5 /// ERCC5 / Fold change vs veh, BIVM-ERCC5 /// ERCC5 / RFU, ILF3 / Fold change vs veh, ILF3 / RFU 11762660_at / Fold change /veh 11762660_at / RFU VCAN (11757783_s_at) / Fold change /veh VCAN (11757783_s_at) / RFU DDX43 (11728927_at) / Fold change /veh DDX43 (11728927_at) / RFU KRT8 (11758188_x_at) / Fold change /veh KRT8 (11758188_x_at) / RFU NKD1 (11759106_at) / Fold change /veh NKD1 (11759106_at) / RFU SRD5A1 (11742802_a_at) / Fold change /veh SRD5A1 (11742802_a_at) / RFU TPSAB1 /// TPSB2 (11721975_s_at) / Fold change /veh TPSAB1 /// TPSB2 (11721975_s_at) / RFU GSTM3 (11746129_a_at) / Fold change /veh GSTM3 (11746129_a_at) / RFU IL23R (11737362_x_at) / Fold change /veh IL23R (11737362_x_at) / RFU TMEM51 (11727254_a_at) / Fold change /veh TMEM51 (11727254_a_at) / RFU PIWIL2 (11732686_x_at) / Fold change /veh PIWIL2 (11732686_x_at) / RFU ORM1 (11744905_x_at) / Fold change /veh ORM1 (11744905_x_at) / RFU CCDC152 (11743942_at) / Fold change /veh CCDC152 (11743942_at) / RFU ECM1 (11717891_a_at) / Fold change /veh ECM1 (11717891_a_at) / RFU IL23R (11748794_a_at) / Fold change /veh IL23R (11748794_a_at) / RFU TNFAIP8L3 (11732012_x_at) / Fold change /veh TNFAIP8L3 (11732012_x_at) / RFU MBOAT4 (11741988_at) / Fold change /veh MBOAT4 (11741988_at) / RFU 11764193_at / Fold change /veh 11764193_at / RFU TMEM53 (11763286_at) / Fold change /veh TMEM53 (11763286_at) / RFU MAGEB2 (11727129_at) / Fold change /veh MAGEB2 (11727129_at) / RFU TMEM200A (11744735_a_at) / Fold change /veh TMEM200A (11744735_a_at) / RFU CCDC152 (11751479_a_at) / Fold change /veh CCDC152 (11751479_a_at) / RFU FAM211A (11726209_a_at) / Fold change /veh FAM211A (11726209_a_at) / RFU RGS16 (11746705_a_at) / Fold change /veh RGS16 (11746705_a_at) / RFU VCAN (11755009_s_at) / Fold change /veh VCAN (11755009_s_at) / RFU RHOB (11743442_s_at) / Fold change /veh RHOB (11743442_s_at) / RFU RGS16 (11720943_a_at) / Fold change /veh RGS16 (11720943_a_at) / RFU RGS16 (11720944_at) / Fold change /veh RGS16 (11720944_at) / RFU, VPS4B / Fold change vs veh, VPS4B / RFU, CREB1 / Fold change vs veh, CREB1 / RFU, DNAJC13 / Fold change vs veh, DNAJC13 / RFU, GNAQ / Fold change vs veh, GNAQ / RFU, CDK5R1 / Fold change vs veh, CDK5R1 / RFU, ZRANB3 / Fold change vs veh, ZRANB3 / RFU, CUL4A / Fold change vs veh, CUL4A / RFU, CCNY / Fold change vs veh, CCNY / RFU, UFL1 / Fold change vs veh, UFL1 / RFU, COG3 / Fold change vs veh, COG3 / RFU, DIAPH2 / Fold change vs veh, DIAPH2 / RFU, SKA2 / Fold change vs veh, SKA2 / RFU, AFF3 / Fold change vs veh, AFF3 / RFU, LMF1 / Fold change vs veh, LMF1 / RFU, IPO11 / Fold change vs veh, IPO11 / RFU, DFFB / Fold change vs veh, DFFB / RFU, FOXP1 / Fold change vs veh, FOXP1 / RFU, CARD8 / Fold change vs veh, CARD8 / RFU, STRN3 / Fold change vs veh, STRN3 / RFU, ADK / Fold change vs veh, ADK / RFU, RASSF2 / Fold change vs veh, RASSF2 / RFU, WIPF1 / Fold change vs veh, WIPF1 / RFU, LARP1B / Fold change vs veh, LARP1B / RFU, RASA1 / Fold change vs veh, RASA1 / RFU, RB1 / Fold change vs veh, RB1 / RFU, PPFIA1 / Fold change vs veh, PPFIA1 / RFU, MAT2A / Fold change vs veh, MAT2A / RFU, CCT5 / Fold change vs veh, CCT5 / RFU, WDR92 / Fold change vs veh, WDR92 / RFU, CUX1 / Fold change vs veh, CUX1 / RFU, TTC7A / Fold change vs veh, TTC7A / RFU, TMEM135 / Fold change vs veh, TMEM135 / RFU, DEPTOR / Fold change vs veh, DEPTOR / RFU, CPM / Fold change vs veh, CPM / RFU, DNAJB6 / Fold change vs veh, DNAJB6 / RFU, CACNA2D3 / Fold change vs veh, CACNA2D3 / RFU, DTX4 / Fold change vs veh, DTX4 / RFU, TFCP2 / Fold change vs veh, TFCP2 / RFU, GMCL1 /// GMCL1P1 / Fold change vs veh, GMCL1 /// GMCL1P1 / RFU, AEBP2 / Fold change vs veh, AEBP2 / RFU, SNHG1 /// SNORD22 /// SNORD25 /// SNORD26 /// SNORD27 /// SNORD28 /// SNORD29 /// SNORD31 / Fold change vs veh, SNHG1 /// SNORD22 /// SNORD25 /// SNORD26 /// SNORD27 /// SNORD28 /// SNORD29 /// SNORD31 / Fold change (Aza/veh), C12orf56 (ProbeSet 11735607_a_at) / Fold change (ACY-1035/veh), C12orf56 (ProbeSet 11735607_a_at) / Fold change (Aza/veh), FGFR1OP (ProbeSet 11751329_s_at) / Fold change (ACY-1035/veh), FGFR1OP (ProbeSet 11751329_s_at) / Fold change (Aza/veh), VPS36 (ProbeSet 11739960_a_at) / Fold change (ACY-1035/veh), VPS36 (ProbeSet 11739960_a_at) / RFU SYPL1 (11715823_x_at) / Fold change /veh SYPL1 (11715823_x_at) / RFU IGFBP7 (11715501_s_at) / Fold change /veh IGFBP7 (11715501_s_at) / RFU REEP3 (11722064_at) / Fold change /veh REEP3 (11722064_at) / RFU IGLL1 (11728026_x_at) / Fold change /veh IGLL1 (11728026_x_at): dose or concentration left out as unconfirmed
Details: MV-4-11 cells, 48 hours

Nc1ncn([C@@H]2O[C@H](CO)[C@@H](O)[C@H]2O)c(=O)n1 [azacitidine]
Fold change /veh SPTSSB (11747773_x_at): 1.09
